Results published in patent publication US20190218226A1, “PRODRUGS OF ANTICANCER AGENTS INDOTECAN AND INDIMITECAN” (Purdue Research Foundation, priority 2016, published 2019).

Legend:
HCT-116 = assay: NCI60 antiproliferative screen, colon HCT-116; format: cell-based, human; details: HCT-116, 48 h, sulforhodamine B; read-out: Cytotoxicity (GI50) Colon HCT-116
Outline: (§1)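 SRB read-out after 48 h exposure; five concentrations, 0.01–100 μM in tenfold steps. Percent growth vs control plotted against log10 conc; GI50 by interpolation across 50% growth.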

OVCAR-3 = assay: NCI60 antiproliferative screen, ovarian OVCAR-3; format: cell-based, human; details: OVCAR-3, 48 h, sulforhodamine B; read-out: Cytotoxicity (GI50) Ovarian OVCAR-3
Outline: as §1

MCF-7 = assay: NCI60 antiproliferative screen, breast MCF-7; format: cell-based, human; details: MCF-7, 48 h, sulforhodamine B; read-out: Cytotoxicity (GI50) breast MCF-7
Outline: as §1

Human recombinant Top1 = biological target: T1, Human recombinant Top1 (Homo sapiens, UniProt P11387); assay: Top1-mediated DNA cleavage assay; format: biochemical; set-up: key to Top 1 Cleavage: 0, no inhibitory activity; +, between 20 and 50% activities; ++, between 50 and 75% activity; +++, between 75 and 95% activity; ++++, equipotent; details: graded relative to 1 μM camptothecin
T1 construct: made in house
T1 sequence (P11387 1-765): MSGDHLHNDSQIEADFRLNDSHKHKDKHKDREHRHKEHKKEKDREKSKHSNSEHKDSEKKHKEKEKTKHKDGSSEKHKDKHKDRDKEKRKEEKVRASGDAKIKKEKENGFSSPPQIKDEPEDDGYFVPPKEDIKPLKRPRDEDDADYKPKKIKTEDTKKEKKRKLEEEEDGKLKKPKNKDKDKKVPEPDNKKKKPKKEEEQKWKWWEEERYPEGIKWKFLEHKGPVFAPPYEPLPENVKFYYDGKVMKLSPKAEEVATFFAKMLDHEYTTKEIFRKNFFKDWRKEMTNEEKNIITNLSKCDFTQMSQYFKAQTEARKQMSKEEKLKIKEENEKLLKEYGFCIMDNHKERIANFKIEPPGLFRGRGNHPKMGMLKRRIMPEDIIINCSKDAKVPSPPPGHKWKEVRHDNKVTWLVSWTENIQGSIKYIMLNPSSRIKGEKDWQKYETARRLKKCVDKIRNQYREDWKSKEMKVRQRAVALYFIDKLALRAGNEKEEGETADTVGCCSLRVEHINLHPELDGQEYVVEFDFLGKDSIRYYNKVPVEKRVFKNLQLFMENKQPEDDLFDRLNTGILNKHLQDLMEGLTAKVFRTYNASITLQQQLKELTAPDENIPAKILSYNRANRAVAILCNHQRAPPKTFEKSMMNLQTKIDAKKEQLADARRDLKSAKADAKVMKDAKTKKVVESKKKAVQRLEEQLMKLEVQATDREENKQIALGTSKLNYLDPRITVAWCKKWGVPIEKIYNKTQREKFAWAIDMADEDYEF
Outline: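 About 2 nM 3′-[32P]-labelled 117-bp DNA incubated with baculovirus-expressed recombinant Top1 at 25 °C for 20 min (Tris pH 7.5, KCl, MgCl2, EDTA, BSA) at four compound concentrations; stopped with 0.5% SDS. Denaturing 20% PAGE, phosphorimaging; cleavage scored semiquantitatively (0 to ++++) against reference compounds.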

## COC(=O)CCC(=O)Oc1cc2c(=O)n(CCCN3CCOCC3)c3c(c2cc1OC)C(=O)c1cc2c(cc1-3)OCO2 [Compound 17, 2-Methoxy-6-(3-morpholinopropyl)-5,12-dioxo-6,12-dihydro-5H-[1,3]dioxolo[4′,5′:5,6]indeno[1,2-c]isoquinolin-3-yl Methyl Succinate]
HCT-116
  GI50: 20 nM
OVCAR-3
  GI50: 37 nM
MCF-7
  GI50: < 10 nM
Human recombinant Top1
  Top 1 Cleavage: 0
